Experimental data reported in patent US20120225862A1, “HETEROARYL BENZAMIDES, COMPOSITIONS AND METHODS OF USE” (AUCKLAND UNIVSERVICES LIMITED, priority 2009, published 2012).

What was measured:
RCC4 = assay: XTT IC50 / viability assay, RCC4 cells; assay type: cell-based, human; settings: Homo sapiens, RCC4, 96 h; XTT assay, four days
Description: (§1) RCC4 parental and RCC4 with VHL-reintroduced (RCC4/VHL), SN12C and SN12C-CSCG-VHL shRNA were maintained in DMEM supplemented with 10% FCS.
(§2) IC50 values for compounds were determined by XTT assay. For 2,3-bis[2-methoxy-4-nitro-5-sulfophenyl]-2H-tetrazolium-5-carboxanilide inner salt (XTT) assays, five thousand cells were plated in 96-well plates. The next day, vehicle or drug was added to each well and incubated for four days. Media was aspirated and phenol red-free medium with 0.3 mg/mL XTT and 2.65 ug/mL N-methyl dibenzopyrazine methyl sulfate was added. This was incubated at 37° C. for 1-2 hours and absorbance was read at 450 nm. IC50 values for each compound were calculated using linear interpolation.
(§3) For 2,3-bis[2-methoxy-4-nitro-5-sulfophenyl]-2H-tetrazolium-5-carboxanilide (XTT) assays, five thousand cells were plated in 96-well plates. The next day, vehicle (DMSO) or drug was added by serial dilution. Four days later, media were aspirated, XTT solution (0.3 mg/ml of XTT (Sigma), 2.65 mg/ml N-methyl dibenxopyrazine methyl sulfate (Simga) in phenol red-free media) was added, and the plates were incubated at 37° C. for 1-2 hours. Metabolism of XTT was quantified by measuring the absorbance at 450 nm. IC50s were calculated using linear interpolation. For clonogenic survival assays, three hundred cells were plated per 60 mm tissue culture dish. The cells were allowed to attach overnight and then treated with vehicle or drug for 14 days. Colonies were fixed and stained with crystal violet (0.1% crystal violet in 95% ethanol). All conditions were measured in triplicate and each experiment was done in duplicate or triplicate. To determine necrosis, cells were treated with drug for a given time point. Media and cells were collected, centrifugated, and resuspended in 0.4% trypan blue (Invitrogen). Live and dead cells were counted on a hematocytometer.

RCC4/VHL = assay: XTT IC50 assay, selectivity RCC4 versus RCC4 with VHL-reintroduced; assay type: cell-based, human; settings: selectivity ratio of XTT IC50 values, RCC4 vs RCC4/VHL
Description: as §1, §2, §3

Structure (SMILES)	IC50 (RCC4) [nM]	Ratio (RCC4:RCC/VHL) (RCC4/VHL)
O=C(Nc1cccnc1)c1ccc(CNS(=O)(=O)c2ccc(Cl)c(Cl)c2)cc1 [Example 70, 4-((3,4-Dichlorophenylsulfonamido)methyl)-N-(pyridin-3-yl)benzamide]	1000 to 20000	b (“b” reflects from 10 to 100)
O=C(Nc1cccnc1)c1ccc(CNS(=O)(=O)c2ccc3ccccc3c2)cc1 [Example 72, 4-((Naphthalene-2-sulfonamido)methyl)-N-(pyridin-3-yl)benzamide]	1000 to 20000	b (“b” reflects from 10 to 100)
CN(C)c1cccc2c(S(=O)(=O)NCc3ccc(C(=O)Nc4cccnc4)cc3)cccc12 [Example 73, 4-((5-(Dimethylamino)naphthalene-1-sulfonamido)methyl)-N-(pyridin-3-yl)benzamide]	< 1000	c (“c” reflects a ratio of >100)
O=C(Nc1cccnc1)c1ccc(CNS(=O)(=O)c2ccc3c(c2)CCC3)cc1 [Example 74, 4-((2,3-Dihydro-1H-indene-5-sulfonamido)methyl)-N-(pyridin-3-yl)benzamide]	< 1000	c (“c” reflects a ratio of >100)
CN(C)C1Cc2ccc(S(=O)(=O)NCc3ccc(C(=O)Nc4cccnc4)cc3)cc2C1 (centres unmarked) [Example 75, 4-((2-(Dimethylamino)-2,3-dihydro-1H-indene-5-sulfonamido)methyl)-N-(pyridin-3-yl)benzamide]	< 1000	c (“c” reflects a ratio of >100)
CN(C)Cc1ccc(S(=O)(=O)NCc2ccc(C(=O)Nc3cccnc3)cc2)cc1 [Example 77, 4-[({4-[(Dimethylamino)methyl]phenyl}sulfonyl)amino]methyl-N-(3-pyridinyl)benzamide]	< 1000	b (“b” reflects from 10 to 100)
CCN(CC)Cc1ccc(S(=O)(=O)NCc2ccc(C(=O)Nc3cccnc3)cc2)cc1 [Example 78, 4-{[({4-[(Diethylamino)methyl]phenyl}sulfonyl)amino]methyl}-N-(3-pyridinyl)benzamide]	< 1000	c (“c” reflects a ratio of >100)
CCCN(CCC)Cc1ccc(S(=O)(=O)NCc2ccc(C(=O)Nc3cccnc3)cc2)cc1 [Example 79, 4-{[({4-[(Dipropylamino)methyl]phenyl}sulfonyl)amino]methyl}-N-(3-pyridinyl)benzamide]	< 1000	b (“b” reflects from 10 to 100)
O=C(Nc1cccnc1)c1ccc(CNS(=O)(=O)c2ccc(CN3CCCC3)cc2)cc1 [Example 80, 4-[({[4-(1-Pyrrolidinylmethyl)phenyl]sulfonyl}amino)methyl]-N-(3-pyridinyl)-benzamide]	< 1000	c (“c” reflects a ratio of >100)
O=C(Nc1cccnc1)c1ccc(CNS(=O)(=O)c2ccc(CN3CCCCC3)cc2)cc1 [Example 81, 4-[({[4-(1-Piperidinylmethyl)phenyl]sulfonyl}amino)methyl]-N-(3-pyridinyl)benzamide]	< 1000	b (“b” reflects from 10 to 100)
O=C(Nc1cccnc1)c1ccc(CNS(=O)(=O)c2ccc(CN3CCCCCC3)cc2)cc1 [Example 82, 4-[({[4-(1-Azepanylmethyl)phenyl]sulfonyl}amino)methyl]-N-(3-pyridinyl)benzamide]	< 1000	c (“c” reflects a ratio of >100)
O=C(Nc1cccnc1)c1ccc(CNS(=O)(=O)c2ccc(CN3CCOCC3)cc2)cc1 [Example 83, 4-[({[4-(4-Morpholinylmethyl)phenyl]sulfonyl}amino)methyl]-N-(3-pyridinyl)benzamide]	< 1000	c (“c” reflects a ratio of >100)
COC1CCN(Cc2ccc(S(=O)(=O)NCc3ccc(C(=O)Nc4cccnc4)cc3)cc2)CC1 [Example 84, 4-{[({4-[(4-Methoxy-1-piperidinyl)methyl]phenyl}sulfonyl)amino]methyl}-N-(3-pyridinyl)benzamide]	< 1000	c (“c” reflects a ratio of >100)
CN1CCN(Cc2ccc(S(=O)(=O)NCc3ccc(C(=O)Nc4cccnc4)cc3)cc2)CC1 [Example 85, 4-{[({4-[(4-Methyl-1-piperazinyl)methyl]phenyl}sulfonyl)amino]methyl}-N-(3-pyridinyl)benzamide]	< 1000	c (“c” reflects a ratio of >100)
CN(C(=O)c1ccc(CNS(=O)(=O)c2ccc(C(C)(C)C)cc2)cc1)c1cccnc1 [Example 89, 4-[(4-tert-Butylphenylsulfonamido)methyl]-N-methyl-N-(3-pyridinyl)benzamide]	1000 to 20000	a (“a” reflects a ratio of RCC4/RCC-VHL+ ranging from 1 to 10)
CN(C(=O)c1ccc(CNS(=O)(=O)c2ccccc2)cc1)c1cccnc1 [Example 90, N-Methyl-4-{[(phenylsulfonyl)amino]methyl}-N-(3-pyridinyl)benzamide]	1000 to 20000	a (“a” reflects a ratio of RCC4/RCC-VHL+ ranging from 1 to 10)
O=C(Nc1cccnc1)c1ccc(CNS(=O)(=O)c2ccc(I)cc2)cc1 [Example 94, 4-((4-Iodophenylsulfonamido)methyl)-N-(pyridin-3-yl)benzamide]	1000 to 20000	a (“a” reflects a ratio of RCC4/RCC-VHL+ ranging from 1 to 10)
C#Cc1ccc(S(=O)(=O)NCc2ccc(C(=O)Nc3cccnc3)cc2)cc1 [Example 95, 4-((4-Ethynylphenylsulfonamido)methyl)-N-(pyridin-3-yl)benzamide]	1000 to 20000	b (“b” reflects from 10 to 100)
COCC#Cc1ccc(S(=O)(=O)NCc2ccc(C(=O)Nc3cccnc3)cc2)cc1 [Example 98, 4-{[({4-[3-(Methyloxy)-1-propynyl]phenyl}sulfonyl)amino]methyl}-N-(3-pyridinyl)benzamide]	1000 to 20000	a (“a” reflects a ratio of RCC4/RCC-VHL+ ranging from 1 to 10)
O=C(Nc1cccnc1)c1ccc(CNS(=O)(=O)c2ccc(-c3cn(Cc4ccccc4)nn3)cc2)cc1 [Example 102, 4-[({[4-(1-benzyl-1H-1,2,3-triazol-4-yl)phenyl]sulfonyl}amino)methyl]-N-(3-pyridinyl)benzamide]	> 20000	a (“a” reflects a ratio of RCC4/RCC-VHL+ ranging from 1 to 10)
O=C(Nc1cccnc1)c1ccc(CNS(=O)(=O)c2ccc(CCCO)cc2)cc1 [Example 104, 4-[({[4-(3-Hydroxypropyl)phenyl]sulfonyl}amino)methyl]-N-(3-pyridinyl)benzamide]	< 1000	c (“c” reflects a ratio of >100)
CC(C)(C)c1ccc(S(=O)(=O)NCc2ccc(C(=O)Nc3cnccc3Cl)cc2)cc1 [Example 112, 4-({[(4-tert-Butylphenyl)sulfonyl]amino}methyl)-N-(4-chloro-3-pyridinyl)benzamide]	> 20000	a (“a” reflects a ratio of RCC4/RCC-VHL+ ranging from 1 to 10)
CC(C)(C)c1ccc(S(=O)(=O)NCc2ccc(C(=O)Nc3cccnc3Cl)cc2)cc1 [Example 113, 4-({[(4-tert-Butylphenyl)sulfonyl]amino}methyl)-N-(2-chloro-3-pyridinyl)benzamide]	> 20000	a (“a” reflects a ratio of RCC4/RCC-VHL+ ranging from 1 to 10)
CC(C)(C)c1ccc(S(=O)(=O)NCc2ccc(C(=O)Nc3ccc(N4CCOCC4)nc3)cc2)cc1 [Example 117, 4-({[(4-tert-Butylphenyl)sulfonyl]amino}methyl)-N-[6-(4-morpholinyl)-3-pyridinyl]benzamide]	> 20000	a (“a” reflects a ratio of RCC4/RCC-VHL+ ranging from 1 to 10)
CC(C)(C)c1ccc(S(=O)(=O)NCc2ccc(C(=O)Nc3cnccc3C(F)(F)F)cc2)cc1 [Example 122, 4-({[(4-tert-Butylphenyl)sulfonyl]amino}methyl)-N-[4-(trifluoromethyl)-3-pyridinyl]benzamide]	1000 to 20000	a (“a” reflects a ratio of RCC4/RCC-VHL+ ranging from 1 to 10)
CC(C)(C)c1ccc(S(=O)(=O)NCc2ccc(C(=O)Nc3cccnc3F)cc2)cc1 [Example 123, 4-({[(4-tert-Butylphenyl)sulfonyl]amino}methyl)-N-(2-fluoro-3-pyridinyl)benzamide]	1000 to 20000	a (“a” reflects a ratio of RCC4/RCC-VHL+ ranging from 1 to 10)
O=C(Nc1cccnc1)c1ccc(CNS(=O)(=O)c2cccc(N3CCOCC3)c2)cc1 [Example 126, 4-[({[3-(4-Morpholinyl)phenyl]sulfonyl}amino)methyl]-N-(3-pyridinyl)benzamide]	1000 to 20000	b (“b” reflects from 10 to 100)
O=C(Nc1cccnc1)c1ccc(CNS(=O)(=O)c2ccc(N3CCOCC3)cc2)cc1 [Example 127, 4-[({[4-(4-Morpholinyl)phenyl]sulfonyl}amino)methyl]-N-(3-pyridinyl)benzamide]	< 1000	b (“b” reflects from 10 to 100)
